Experimental data as given in patent US8501446B2 (Vertex Pharmaceuticals Incorporated, priority 2004, dated 2013).

What was measured:
Type in all cases: biochemical
JAK2 = JAK2 (Homo sapiens, UniProt O60674); assay: JAK2 inhibition assay (radioactive enzyme assay, as for JAK3); conditions: average Ki if more than one value determined
Experimental: (§1) Compounds were screened for their ability to inhibit JAK3 using a standard radioactive enzyme assay. 1.5 μL/well of a DMSO stock containing serial dilutions of a compound of the present invention (concentrations ranging from 667 μM to 46 nM) was placed in a 96 well polycarbonate plate. 50 μL per well of kinase buffer (100 mM HEPES (pH 7.4), 10 mM MgCl2, 25 mM NaCl, 1 mM DTT, and 0.01% bovine serum albumin (BSA)) containing 2 μM poly(Glu)4Tyr and 10 μM ATP was also added to the plate. To initiate the reaction, 50 μL kinase buffer containing 2 nM JAK3 enzyme was added. Final ATP concentration was 5 μM [γ-^33P] ATP (200 μCi ^33P ATP/μmol ATP (Perkin Elmer, Cambridge, Mass.). After 20 minutes at room temperature (25° C.), the reaction was stopped by adding 50 μL 20% trichloroacetic acid (TCA)/0.4 mM ATP to each well. The entire content of each well was then transferred to a 96 well glass fiber filter plate using a TomTek Cell Harvester. After washing, 60 μL scintillation fluid was added and ^33P incorporation detected using a Perkin Elmer TopCount. After removing mean background values for all of the data points the data was fit using Prism software to obtain a Ki(app). Inhibition of JAK2 was measured as above except that final poly(Glu)4Tyr concentration was 15 μM and final ATP concentration was 12 μM.

JAK3 = biological target: T1, JAK3 (Homo sapiens, UniProt P52333); assay: JAK3 inhibition assay (standard radioactive enzyme assay); conditions: average Ki if more than one value determined
T1 sequence (P52333 1-1124): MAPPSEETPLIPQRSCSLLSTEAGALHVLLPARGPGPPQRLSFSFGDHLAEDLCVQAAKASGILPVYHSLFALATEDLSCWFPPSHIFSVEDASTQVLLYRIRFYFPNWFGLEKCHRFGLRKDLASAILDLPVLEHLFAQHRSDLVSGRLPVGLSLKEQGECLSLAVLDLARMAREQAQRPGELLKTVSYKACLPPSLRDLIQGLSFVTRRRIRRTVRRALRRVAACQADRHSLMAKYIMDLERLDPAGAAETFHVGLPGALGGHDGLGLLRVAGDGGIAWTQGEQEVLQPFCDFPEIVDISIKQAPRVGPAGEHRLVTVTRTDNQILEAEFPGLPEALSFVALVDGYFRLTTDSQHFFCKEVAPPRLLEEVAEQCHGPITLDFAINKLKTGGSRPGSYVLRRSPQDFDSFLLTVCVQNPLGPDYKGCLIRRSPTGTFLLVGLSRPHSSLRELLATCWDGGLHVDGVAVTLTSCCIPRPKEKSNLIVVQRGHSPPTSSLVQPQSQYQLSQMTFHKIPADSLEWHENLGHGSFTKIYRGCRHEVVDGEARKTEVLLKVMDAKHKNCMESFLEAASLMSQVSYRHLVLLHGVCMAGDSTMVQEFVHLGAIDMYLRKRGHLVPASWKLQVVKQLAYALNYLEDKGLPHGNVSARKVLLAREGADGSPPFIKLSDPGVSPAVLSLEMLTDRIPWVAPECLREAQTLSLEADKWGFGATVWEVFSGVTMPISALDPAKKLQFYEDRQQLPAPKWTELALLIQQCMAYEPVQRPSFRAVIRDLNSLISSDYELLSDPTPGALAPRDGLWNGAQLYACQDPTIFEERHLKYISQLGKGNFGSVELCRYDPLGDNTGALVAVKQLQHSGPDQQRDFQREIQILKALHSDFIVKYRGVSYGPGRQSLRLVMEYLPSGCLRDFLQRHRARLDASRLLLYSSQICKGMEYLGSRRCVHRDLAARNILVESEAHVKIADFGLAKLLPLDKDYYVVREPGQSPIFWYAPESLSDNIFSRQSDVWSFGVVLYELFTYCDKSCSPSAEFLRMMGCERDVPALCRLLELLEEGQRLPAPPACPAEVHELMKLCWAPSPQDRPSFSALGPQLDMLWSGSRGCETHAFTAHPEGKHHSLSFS
Experimental: as §1

ROCK I (AA 6-553) = biological target: T2, ROCK I (AA 6-553) (Homo sapiens, UniProt Q13464); assay: ROCK inhibition assay, standard coupled enzyme system ("Enzyme"); conditions: enzyme-linked assay
T2 construct: ROCK I (AA 6-553)
T2 sequence (Q13464 6-553, species assumed): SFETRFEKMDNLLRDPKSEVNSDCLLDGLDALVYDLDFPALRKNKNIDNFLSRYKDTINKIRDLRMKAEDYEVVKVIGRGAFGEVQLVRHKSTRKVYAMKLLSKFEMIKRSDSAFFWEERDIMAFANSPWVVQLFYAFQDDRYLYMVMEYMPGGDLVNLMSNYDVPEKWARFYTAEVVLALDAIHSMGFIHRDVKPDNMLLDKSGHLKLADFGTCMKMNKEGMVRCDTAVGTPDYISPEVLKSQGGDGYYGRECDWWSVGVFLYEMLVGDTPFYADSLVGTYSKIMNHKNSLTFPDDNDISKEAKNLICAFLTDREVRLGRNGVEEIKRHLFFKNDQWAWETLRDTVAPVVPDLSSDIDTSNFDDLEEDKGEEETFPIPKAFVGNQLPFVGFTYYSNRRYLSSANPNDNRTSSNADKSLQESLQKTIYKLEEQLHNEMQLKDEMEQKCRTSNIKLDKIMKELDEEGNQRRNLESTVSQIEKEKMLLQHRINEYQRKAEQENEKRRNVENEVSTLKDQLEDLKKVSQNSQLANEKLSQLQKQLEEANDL
How it was run: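 ROCK I (AA 6-553) at 45 nM and 30 °C with 45 μM ATP and 200 μM peptide, in 100 mM HEPES pH 7.5, 10 mM MgCl2, 25 mM NaCl, 2 mM DTT, 1.5% DMSO. ADP output read by a PK/LDH coupled system: 2.5 mM PEP, 350 μM NADH, 30 μg/ml PK, 10 μg/ml LDH.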

Sequence of JAK2 (O60674 whole entry, species assumed): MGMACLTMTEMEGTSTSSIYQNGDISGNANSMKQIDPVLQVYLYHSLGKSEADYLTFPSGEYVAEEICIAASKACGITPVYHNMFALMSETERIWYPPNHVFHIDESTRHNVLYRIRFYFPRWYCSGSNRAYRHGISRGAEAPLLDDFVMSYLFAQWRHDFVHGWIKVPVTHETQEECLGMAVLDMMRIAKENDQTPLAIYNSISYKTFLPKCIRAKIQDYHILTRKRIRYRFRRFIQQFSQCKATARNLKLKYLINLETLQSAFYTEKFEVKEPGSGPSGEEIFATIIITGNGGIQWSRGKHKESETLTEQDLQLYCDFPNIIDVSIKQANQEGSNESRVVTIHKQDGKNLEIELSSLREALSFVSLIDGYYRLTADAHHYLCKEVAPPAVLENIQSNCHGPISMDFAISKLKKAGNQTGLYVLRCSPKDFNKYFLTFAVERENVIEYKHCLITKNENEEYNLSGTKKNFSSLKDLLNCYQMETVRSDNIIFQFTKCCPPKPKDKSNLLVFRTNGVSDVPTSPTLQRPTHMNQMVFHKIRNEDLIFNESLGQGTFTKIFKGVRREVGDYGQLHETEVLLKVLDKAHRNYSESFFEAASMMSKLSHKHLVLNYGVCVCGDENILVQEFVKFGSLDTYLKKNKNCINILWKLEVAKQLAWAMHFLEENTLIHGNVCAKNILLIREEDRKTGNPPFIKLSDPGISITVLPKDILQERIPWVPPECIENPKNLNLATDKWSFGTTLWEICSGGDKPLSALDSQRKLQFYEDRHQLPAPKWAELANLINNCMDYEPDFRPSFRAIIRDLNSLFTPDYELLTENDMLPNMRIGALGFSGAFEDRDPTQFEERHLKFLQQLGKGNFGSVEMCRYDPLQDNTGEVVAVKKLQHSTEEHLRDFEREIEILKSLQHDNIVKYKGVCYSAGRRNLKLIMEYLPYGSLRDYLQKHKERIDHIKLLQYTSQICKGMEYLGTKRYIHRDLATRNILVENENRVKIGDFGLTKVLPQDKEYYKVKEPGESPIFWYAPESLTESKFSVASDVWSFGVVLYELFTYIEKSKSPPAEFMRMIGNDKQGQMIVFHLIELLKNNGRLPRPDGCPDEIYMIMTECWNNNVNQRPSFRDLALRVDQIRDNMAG

SMILES	Ki (JAK2)	Ki (JAK3)	Ki (ROCK I (AA 6-553))
CC(=O)N1[C@H](C)CN(c2cccc(-c3c[nH]c4ncc(NC(=O)CN5CCOCC5)cc34)n2)C[C@@H]1C [Compound 116]	< 500 nM	< 500 nM	500 to 5000 nM
CC(=O)N1[C@H](C)CN(c2cccc(-c3c[nH]c4ncc(NC(=O)OCC(C)C)cc34)n2)C[C@@H]1C [Compound 63]	< 500 nM	< 500 nM	< 500 nM
CC(=O)N1[C@H](C)CN(c2cccc(-c3c[nH]c4ncc(NC(=O)N5CCOCC5)cc34)n2)C[C@@H]1C [Compound 127]	< 500 nM	< 500 nM	500 to 5000 nM
O=C(O)c1ccc(-c2c[nH]c3ncc(Cl)cc23)cc1Cl [Compound 175]	< 500 nM	< 500 nM	
CC(=O)N1[C@H](C)CN(c2cccc(-c3c[nH]c4ncc(O)cc34)n2)C[C@@H]1C [Compound 77]	< 500 nM	< 500 nM	500 to 5000 nM
CC(=O)N1[C@H](C)CN(c2cc(-c3nnn[nH]3)cc(-c3c[nH]c4ncc(Cl)cc34)n2)C[C@@H]1C [Compound 111]	< 500 nM	< 500 nM	500 to 5000 nM
O=C(Nc1cccc(-c2c[nH]c3ncc(Cl)cc23)n1)OCc1ccccc1 [Compound 91]	500 to 5000 nM	500 to 5000 nM	500 to 5000 nM
COc1ccc(OC(=O)Nc2cnc3[nH]cc(-c4cccc(N5C[C@@H](C)N(C(C)=O)[C@@H](C)C5)n4)c3c2)cc1 [Compound 71]	< 500 nM	< 500 nM	500 to 5000 nM
CC(C)Oc1cccc(-c2c[nH]c3ncc(Cl)cc23)c1 [Compound 143]	500 to 5000 nM	< 500 nM	500 to 5000 nM
C=C(C)COc1cnc2[nH]cc(-c3cccc(N4C[C@@H](C)N(C(C)=O)[C@@H](C)C4)n3)c2c1 [Compound 207]		< 500 nM	500 to 5000 nM
Clc1cnc2[nH]cc(-c3ccc4ccccc4c3)c2c1 [Compound 199]	500 to 5000 nM	< 500 nM	500 to 5000 nM
O=C(O)c1ccc(-c2c[nH]c3ncc(Cl)cc23)c(F)c1 [Compound 188]	> 5000 nM	500 to 5000 nM	
CN1C2CCC1CN(c1cccc(-c3c[nH]c4ncc(Cl)cc34)n1)CC2 (centres unmarked) [Compound 82]	< 500 nM	< 500 nM	< 500 nM
CC(C)[C@@H](CO)Nc1cccc(-c2c[nH]c3ncc(Cl)cc23)n1 [Compound 134]	< 500 nM	< 500 nM	500 to 5000 nM
CC(=O)N1[C@H](C)CN(c2cccc(-c3c[nH]c4ncc(C(=O)N5CCCCCC5)cc34)n2)C[C@@H]1C [Compound 55]	500 to 5000 nM	500 to 5000 nM	
C=CC(=O)Nc1cnc2[nH]cc(-c3cccc(N4CCCN(C(C)=O)CC4)n3)c2c1 [Compound 139]	< 500 nM	< 500 nM	500 to 5000 nM
N#Cc1ccc(-c2c[nH]c3ncc(Cl)cc23)cc1 [Compound 176]	< 500 nM	< 500 nM	
CC(=O)N1[C@H](C)CN(c2cccc(-c3c[nH]c4ncc(NC(=O)c5cccc(Cl)c5)cc34)n2)C[C@@H]1C [Compound 174]	< 500 nM	< 500 nM	
FC(F)(F)c1cc(NCc2ccccc2)cc(-c2c[nH]c3ncc(Cl)cc23)c1 [Compound 187]	500 to 5000 nM	< 500 nM	
COc1cnc2[nH]cc(-c3ncc(F)c(N[C@@H](C)C(=O)NCC(F)(F)F)n3)c2c1 [Compound 204]		< 500 nM	500 to 5000 nM
CC(=O)N1[C@H](C)CN(c2cccc(-c3c[nH]c4ncc(OC(C)C)cc34)n2)C[C@@H]1C [Compound 206]		< 500 nM	500 to 5000 nM
CCOc1cnc2[nH]cc(-c3cccc(N4C[C@@H](C)N(C(C)=O)[C@@H](C)C4)n3)c2c1 [Compound 205]		< 500 nM	500 to 5000 nM

Continued, values first:

Ki (JAK2)	Ki (JAK3)	Ki (ROCK I (AA 6-553))	SMILES
< 500 nM	< 500 nM	500 to 5000 nM	CC(C)(O)c1cccc(-c2c[nH]c3ncc(Cl)cc23)n1 [Compound 203]
< 500 nM	< 500 nM	500 to 5000 nM	Clc1cnc2[nH]cc(-c3cccc(NC4CCc5ccccc54)n3)c2c1 (centres unmarked) [Compound 133]
500 to 5000 nM	< 500 nM	500 to 5000 nM	Clc1cnc2[nH]cc(-c3ccccn3)c2c1 [Compound 184]
	< 500 nM	500 to 5000 nM	CC(=O)N1[C@H](C)CN(c2cccc(-c3c[nH]c4ncc(OCCOC(C)C)cc34)n2)C[C@@H]1C [Compound 209]
< 500 nM	< 500 nM	< 500 nM	CCOC(=O)c1cnc2[nH]cc(-c3cccc(N4C[C@@H](C)N(C(C)=O)[C@@H](C)C4)n3)c2c1 [Compound 73]
< 500 nM	< 500 nM	500 to 5000 nM	CN(C)c1cccc(-c2c[nH]c3ncc(Cl)cc23)c1 [Compound 144]
< 500 nM	< 500 nM	< 500 nM	CCCOC(=O)Nc1cnc2[nH]cc(-c3cccc(N4C[C@@H](C)N(C(C)=O)[C@@H](C)C4)n3)c2c1 [Compound 62]
< 500 nM	< 500 nM	< 500 nM	O[C@H]1Cc2ccccc2[C@H]1Nc1cccc(-c2c[nH]c3ncc(Cl)cc23)n1 [Compound 136]
< 500 nM	< 500 nM	500 to 5000 nM	O=C(O)c1cc(NCc2ccccc2)cc(-c2c[nH]c3ncc(Cl)cc23)c1 [Compound 147]
< 500 nM	< 500 nM	500 to 5000 nM	CC(=O)N1[C@H](C)CN(c2cccc(-c3c[nH]c4ncc(OCCCN(C)C)cc34)n2)C[C@@H]1C [Compound 194]
< 500 nM	< 500 nM	500 to 5000 nM	NC(=O)c1ccc(-c2c[nH]c3ncc(Cl)cc23)cc1 [Compound 105]
< 500 nM	< 500 nM	500 to 5000 nM	COC(=O)N1CCCN(c2cccc(-c3c[nH]c4ncc(Cl)cc34)n2)CC1 [Compound 83]
500 to 5000 nM	< 500 nM	500 to 5000 nM	Clc1cnc2[nH]cc(-c3ccc4ccccc4n3)c2c1 [Compound 195]
< 500 nM	< 500 nM	500 to 5000 nM	CCCOC(=O)Nc1cccc(-c2c[nH]c3ncc(Cl)cc23)n1 [Compound 88]
< 500 nM	< 500 nM	< 500 nM	CC(=O)N1[C@H](C)CN(c2cccc(-c3c[nH]c4ncc(C(=O)OCC(C)C)cc34)n2)C[C@@H]1C [Compound 74]
< 500 nM	< 500 nM	500 to 5000 nM	COc1cnc2[nH]cc(-c3cccc(N4CCCN(C(C)=O)CC4)n3)c2c1 [Compound 112]
	< 500 nM	500 to 5000 nM	CC(=O)N1[C@H](C)CN(c2cccc(-c3c[nH]c4ncc(OCCCN5CCOCC5)cc34)n2)C[C@@H]1C [Compound 208]
< 500 nM	< 500 nM	500 to 5000 nM	O[C@@H]1Cc2ccccc2[C@@H]1Nc1cccc(-c2c[nH]c3ncc(Cl)cc23)n1 [Compound 137]
500 to 5000 nM	< 500 nM	500 to 5000 nM	Cc1cc(-c2c[nH]c3ncc(Cl)cc23)nc2ccccc12 [Compound 197]
500 to 5000 nM	< 500 nM		Cc1cccc(-c2c[nH]c3ncc(Cl)cc23)c1 [Compound 185]
